Assays:
Assay type in all cases: cell-based
[1] = system: physical interaction between Grb2 and SOS1; assay: Insulin-like activity: Grb2-SOS1 physical interaction by PLA (proximity ligation assay) in HaCaT cells; details: 1 μM, 5 min, Humulin R at same concentration, FIG. 1
Description: When the insulin signal is transmitted into cells, the physical interaction between Grb2 and SOS1 is increased. After treatment of the cells with the peptide of the present invention, the physical interaction between Grb2 and SOS1 was measured through PLA (proximity ligation assay) and thus insulin-like activity was evaluated. 4.5×10^4 HaCaT cells (CLS 300493) were seeded in a DMEM serum medium in each well of a 24-well microplate and cultured in a 5% CO2 incubator at 37° C. for 24 hr, after which the peptide solution of Example 2 was added such that the peptide concentration of SEQ ID NOS: 1 to 6 in the medium was 1 μM, followed by incubation for 5 min under the same conditions. As a positive control, Humulin R was treated at the same concentration. A control received no treatment. The cells of each well were washed with PBS, treated with 2% formaldehyde for 15 min to thus fix the same, and then treated with 0.1% TritonX-100 for 5 min to thus increase antibody permeability into the cells. […] The physical interactions of the Grb2 and SOS1 antibodies were quantified by measuring the PLA signals detected in individual cells using a confocal laser microscope (Olympus FluoView FW1000; Olympus, Tokyo, Japan).

[2] = system: insulin receptor; assay: Immunofluorescence analysis of endocytosis of FITC-conjugated peptide in HaCaT cells; details: FITC-conjugated peptide 1 μM, 5, 15, 30, 60 min tested, FIG. 2A
Description: In order to evaluate whether, like insulin, the peptide of the present invention induces endocytosis by binding to the insulin receptor, immunofluorescence analysis was performed. A fluorescent material (FITC) was conjugated to the peptide of SEQ ID NO: 3. HaCaT cells (CLS 300493) were pretreated in the same manner as in Test Example 1, added with the peptide solution of SEQ ID NO: 3 having the fluorescent material conjugated thereto such that the final concentration was 1 μM, and then treated for 5 min, 15 min, 30 min, and 60 min. The cells were washed three times with a PBS solution and then mounted onto a slide to give a test specimen, which was then observed using a confocal laser microscope (Olympus FluoView FW1000; Olympus, Tokyo, Japan). […] The insulin binds to the insulin receptor in the cells, followed by endocytosis (internalization) and then degradation.

[3] = system: insulin receptor; assay: RNA interference: endocytosis after insulin receptor siRNA transfection in HaCaT cells; details: FITC-conjugated peptide 1 μM, 5 min, siRNA 10 nM or 30 nM vs no treatment, FIG. 2B
Description: Based on the above test results, in order to determine whether the effect of the peptide of the present invention on endocytosis is mediated by the insulin receptor, RNA interference was analyzed. HaCaT cells (CLS 300493) were cultured in a DMEM serum medium until the cells reached 50-60% confluency, followed by transient transfection using the insulin receptor siRNA (Santa Cruz, Calif., USA) (no treatment, 10 nM treatment, or 30 nM treatment) and lipofectamine RNAiMAX (Invitrogen) in accordance with the manufacturer's protocol to thus inhibit the insulin receptor expression, after which the cells were treated for 5 min using the peptide of SEQ ID NO: 3 having the fluorescent material conjugated thereto at a concentration of 1 μM. The fluorescence intensity of each group was observed using a confocal laser microscope (Olympus FluoView FW1000; Olympus, Tokyo, Japan).

[4] = system: HaCaT cells; assay: Cell migration test (Culture-Insert 2 Well); details: peptide 0.01, 0.1, 1 μM or Humulin R 1 μM for 5 min, observed after 10 hr and 13 hr, FIG. 3
Description: For cell migration testing, a Culture-Insert 2 Well (Ibidi™), having two separate culture spaces therein, was used. When cells are cultured on the above plate, the cells are attached to both sides, between which an empty space is formed, followed by removal of the insert well and further culturing, whereby the cells of the two sides migrate to the empty space of the plate. HaCaT cells (CLS 300493) were cultured on the above plate until the cells reached 90% confluency and then the insert well was removed, after which the cells were treated for 5 min with the peptide of SEQ ID NO: 3 (0.01 μM, 0.1 μM, 1 μM) or Humulin R (1 μM), and washed with PBS, after which the medium was replaced with a cell culture medium (DMEM serum medium). After 10 hr and 13 hr, cell migration was observed through a phase contrast microscope.

[5] = system: HaCaT cells; assay: Cell proliferation test (CCK-8); details: 0.1, 1 and 10 μM in serum-free media, 24, 48 and 72 hr, FIG. 4
Description: For cell proliferation testing, 5×10^3 HaCaT cells (CLS 300493) were seeded in each well of a 96-well plate, and then treated with a solution containing the peptide of SEQ ID NO: 3 (total volume: 90 μl) such that the concentrations in serum-free media were 0.1, 1 and 10 μM. Cell proliferation for 24, 48 and 72 hr was observed using a microplate reader (Versa Max, USA). For measurement, treatment was performed for 2 hr using 10 μl of a CCK-8 (cell counting kit-8) solution at the same time every day.

[6] = system: HaCaT cells; assay: 2-NBDG glucose uptake analysis; details: 0.001, 0.01, 0.1 μM in serum-free media, 5 min, FIG. 5
Description: 2-NBDG glucose, which is a fluorescent deoxyglucose analogue, is introduced into cells by a glucose transporter, like glucose, but accumulates without actual metabolism, and thus the extent of glucose uptake may be determined based on the accumulated amount of fluorescence. A 2-NBDG glucose uptake kit (Biovision) was used for 2-NBDG glucose uptake analysis. Specifically, 3×10^4 HaCaT cells (CLS 300493) were seeded in each well of a 24-well plate, cultured in a 5% CO2 incubator at 37° C. for 24 hr with a DMEM serum medium, washed with PBS, and treated with the peptide of SEQ ID NO: 3 and Humulin R such that the concentrations in serum-free media were 0.001 μM, 0.01 μM, and 0.1 μM, followed by incubation for 5 min. A mixed solution of a 2-NBDG reagent and a glucose uptake enhancer was prepared in accordance with the manufacturer's protocol, after which the cells were treated therewith for 1 hr, washed with the supplied cold 1× analysis buffer, and observed using a confocal laser microscope (Olympus FluoView FW1000; Olympus, Tokyo, Japan).

[7] = system: insulin receptor; assay: 2-NBDG glucose uptake after inhibition of insulin receptor expression using siRNA; details: peptide 1 μM, 5 min; siRNA 10 nM or 30 nM vs no treatment; HaCaT cells; FIG. 6
Description: Based on the above test results, in order to evaluate whether, like insulin, the peptide of the present invention enhances glucose uptake through the insulin receptor, insulin receptor expression was inhibited using siRNA, after which 2-NBDG glucose uptake testing was performed. HaCaT cells (CLS 300493) were cultured in a DMEM serum medium until the cells reached 50-60% confluency, followed by transient transfection using the insulin receptor siRNA (Santa Cruz, Calif., USA) (no treatment, 10 nM treatment, or 30 nM treatment) and lipofectamine RNAiMAX (Invitrogen) in accordance with the manufacturer's protocol to thus inhibit insulin receptor expression, after which the cells were treated for 5 min using the peptide of SEQ ID NO: 3 at a concentration of 1 μM. A mixed solution of a 2-NBDG reagent and a glucose uptake enhancer was prepared in accordance with the manufacturer's protocol, after which the cells were treated therewith for 1 hr, washed with the supplied cold 1× analysis buffer, and observed using a confocal laser microscope (Olympus FluoView FW1000; Olympus, Tokyo, Japan).

[8] = system: glucose transporter (GLUT4); assay: Translocation of glucose transporter to cell membrane by immunofluorescence; details: HaCaT cells; 0.001, 0.01 and 0.1 μM in serum-free DMEM, 5 min; FIG. 7
Description: In addition, the translocation of the glucose transporter to the cell membrane in HaCaT cells was evaluated through immunofluorescence analysis. Specifically, HaCaT cells (CLS 300493) were treated with the peptide of SEQ ID NO: 3 and Humulin R (positive control) at concentrations of 0.001, 0.01 and 0.1 μM in a serum-free DMEM medium for 5 min. The cells were washed with a PBS solution, treated with a GLUT4 antibody (Santa Cruz, Calif., USA) for 1 hr, treated with rhodamine red for 40 min, and observed using a confocal laser microscope (Olympus FluoView FW1000; Olympus, Tokyo, Japan).

insulin receptor, sequence (P06213 28-758 limits assumed): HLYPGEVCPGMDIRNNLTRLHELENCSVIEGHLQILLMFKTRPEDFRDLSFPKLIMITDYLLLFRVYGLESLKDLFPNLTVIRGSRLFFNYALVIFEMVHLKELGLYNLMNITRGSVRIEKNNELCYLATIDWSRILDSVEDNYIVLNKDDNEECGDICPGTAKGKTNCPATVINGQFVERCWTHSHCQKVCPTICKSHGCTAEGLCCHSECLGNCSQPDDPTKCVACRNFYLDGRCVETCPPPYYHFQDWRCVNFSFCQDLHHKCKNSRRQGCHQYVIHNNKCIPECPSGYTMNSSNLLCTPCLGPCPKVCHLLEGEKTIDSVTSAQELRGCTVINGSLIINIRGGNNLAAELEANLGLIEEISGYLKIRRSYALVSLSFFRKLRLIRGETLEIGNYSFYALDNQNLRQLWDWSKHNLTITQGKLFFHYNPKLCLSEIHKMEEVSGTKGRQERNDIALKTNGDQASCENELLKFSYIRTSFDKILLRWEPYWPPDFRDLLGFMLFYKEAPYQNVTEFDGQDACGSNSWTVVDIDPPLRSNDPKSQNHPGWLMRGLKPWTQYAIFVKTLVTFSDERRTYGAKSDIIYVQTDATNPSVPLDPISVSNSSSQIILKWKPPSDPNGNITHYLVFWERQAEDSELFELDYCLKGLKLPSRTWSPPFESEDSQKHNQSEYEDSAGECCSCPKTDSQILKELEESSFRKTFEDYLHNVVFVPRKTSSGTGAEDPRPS
insulin receptor, sequence (P06213 763-1382 partner limits assumed): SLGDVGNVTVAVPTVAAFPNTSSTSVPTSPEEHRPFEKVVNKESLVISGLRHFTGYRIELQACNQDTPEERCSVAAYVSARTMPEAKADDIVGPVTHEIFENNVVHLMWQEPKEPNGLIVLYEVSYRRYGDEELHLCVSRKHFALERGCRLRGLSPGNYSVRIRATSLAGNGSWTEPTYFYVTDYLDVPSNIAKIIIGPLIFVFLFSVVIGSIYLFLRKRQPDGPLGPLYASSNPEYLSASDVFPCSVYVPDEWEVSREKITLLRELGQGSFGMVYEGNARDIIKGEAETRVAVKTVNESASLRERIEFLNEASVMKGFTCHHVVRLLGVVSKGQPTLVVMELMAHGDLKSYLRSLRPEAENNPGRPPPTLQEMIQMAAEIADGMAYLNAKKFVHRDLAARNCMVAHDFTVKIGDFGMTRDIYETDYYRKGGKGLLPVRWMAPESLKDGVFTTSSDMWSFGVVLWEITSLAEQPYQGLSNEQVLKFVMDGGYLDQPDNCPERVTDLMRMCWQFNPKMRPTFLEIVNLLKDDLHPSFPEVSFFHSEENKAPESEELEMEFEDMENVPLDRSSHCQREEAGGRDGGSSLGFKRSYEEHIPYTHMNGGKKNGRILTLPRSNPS

Substance	Grb2/SOS1 antibody interaction (PLA signals) compared to positive control Humulin R [1]	Time after treatment at which highest endocytosis (fluorescence) was observed [2] [min]	Incidence of endocytosis in group transiently transfected with insulin receptor siRNA [3]	Cell migration [4]	Cell proliferation [5]	Glucose uptake (2-NBDG) [6]	Glucose uptake (2-NBDG) in group transiently transfected with insulin receptor siRNA [7]	Amount of glucose transporter (GLUT4) in the cell membrane [8]
Cys-Ser-Leu (CSL; Peptide fragment) [SEQ ID NO: 3]	significantly higher antibody interaction than the positive control	5	reduced	increased in a concentration-dependent manner	increased in a concentration-dependent manner	increased in a concentration-dependent manner	reduced	increased in the cell membrane in a concentration-dependent manner
Humulin R: recombinant insulin preparation (injection), used as positive control [reference compound]				increased		increased in a concentration-dependent manner		increased in the cell membrane in a concentration-dependent manner
